Source: PubChem BioAssay AID200 (DTP/NCI, 2004)
“And” between values parts separate entries of the source, which are not always exact repeats. Equal values may be shown once. Inconclusive results and toxic doses are left out. Rule for the calls: active = survival T/C of 150% or more; inactive = T/C below 125% in these data. Where a SMILES comes first, the peptide text is derived from it. [ ]: non-standard residue; d: D form. Tyr(3,5-I2) = N[CH](Cc1cc(I)c(O)c(I)c1)C(=O)O

System: B6C3F1 mice, B16 melanoma ip, median survival T/C
Assay: NCI In Vivo Anticancer Drug Screen. Data for tumor model B16 Melanoma (intraperitoneal) in B6C3F1 mice
Conditions: endpoint: median survival time, higher = longer survival
Method in brief: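 Mice bearing transplanted tumor were dosed with compound or vehicle, and survival was recorded. Activity is expressed as the treated-group measurement (T) divided by the vehicle control measurement (C).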

[1] = dose: 50.0 mg/kg/injection, schedule: Q01DX009 (ip), vehicle: Klucel (hydroxypropylcellulose) (HPC)
[2] = dose: 100.0 mg/kg/injection, schedule: Q01DX009 (ip), vehicle: Klucel (hydroxypropylcellulose) (HPC)
[3] = dose: 25.0 mg/kg/injection, schedule: Q01DX009 (ip), vehicle: saline with Tween-80
[4] = dose: 50.0 mg/kg/injection, schedule: Q01DX009 (ip), vehicle: saline with Tween-80
[5] = dose: 100.0 mg/kg/injection, schedule: Q01DX009 (ip), vehicle: saline with Tween-80
[6] = dose: 25.0 mg/kg/injection, schedule: Q01DX009 (ip), vehicle: Klucel (hydroxypropylcellulose) (HPC)
[7] = dose: 5.0 mg/kg/injection, schedule: Q01DX009 (ip), vehicle: saline with Tween-80

Measured: T/C

CC1CN1P1(N2CC2C)=NP(N2CC2C)(N2CC2C)=NP(N2CC2C)(N2CC2C)=N1 (stereo not given)
inactive: dose: 1.0 mg/kg/injection, schedule: Q01DX009 (ip), vehicle: saline 98 % of control | dose: 1.0 mg/kg/injection, schedule: Q02DX009 (ip), vehicle: saline 96 % of control | dose: 2.0 mg/kg/injection, schedule: Q01DX009 (ip), vehicle: saline 100 % of control | dose: 2.0 mg/kg/injection, schedule: Q02DX009 (ip), vehicle: saline 102 % of control | dose: 4.0 mg/kg/injection, schedule: Q01DX009 (ip), vehicle: saline 106 % of control | dose: 4.0 mg/kg/injection, schedule: Q02DX009 (ip), vehicle: saline 101 % of control | dose: 8.0 mg/kg/injection, schedule: Q01DX009 (ip), vehicle: saline 115 % of control | dose: 8.0 mg/kg/injection, schedule: Q02DX009 (ip), vehicle: saline 105 % of control | dose: 16.0 mg/kg/injection, schedule: Q01DX009 (ip), vehicle: saline 117 % of control | dose: 32.0 mg/kg/injection, schedule: Q02DX009 (ip), vehicle: saline 122 % of control | dose: 64.0 mg/kg/injection, schedule: Q01DX009 (ip), vehicle: saline 118 % of control | dose: 64.0 mg/kg/injection, schedule: Q02DX009 (ip), vehicle: saline 94 % of control

CC(C)(C)OC(=O)NC(Cc1ccccc1)C(=O)O (stereo not given)
inactive: [1] 104 % of control | [2] 88 % of control | dose: 200.0 mg/kg/injection, schedule: Q01DX009 (ip), vehicle: Klucel (hydroxypropylcellulose) (HPC) 100 % of control

CN1CCC(c2ccccc2)(c2ccccc2)C(=O)C1
inactive: [3] 97 % of control | [4] 90 % of control | [5] 93 % of control and 95 % of control

Cc1ccc(N=Nc2c(O)ccc3n[nH]nc23)cc1
inactive: [6] 94 % of control | [1] 96 % of control | [2] 114 % of control

CC12CC3OC(=O)C1COC14OC5(C2C1=O)C(O)(CCC1C4CC2OC24CC=CC(=O)C14C)C(=O)OC35C (stereo not given)
inactive: dose: 7.5 mg/kg/injection, schedule: Q01DX009 (ip), vehicle: Klucel (hydroxypropylcellulose) (HPC) 88 % of control | dose: 15.0 mg/kg/injection, schedule: Q01DX009 (ip), vehicle: Klucel (hydroxypropylcellulose) (HPC) 93 % of control | dose: 30.0 mg/kg/injection, schedule: Q01DX009 (ip), vehicle: Klucel (hydroxypropylcellulose) (HPC) 99 % of control

COC1=C2C[C@@H](C)C[C@@H](OC)[C@@H](O)[C@H](C)/C=C(\C)[C@@H](OC(N)=O)[C@H](OC)/C=C\C=C(/C)C(=O)NC(=CC1=O)C2=O
inactive: dose: 0.12 mg/kg/injection, schedule: Q01DX009 (ip), vehicle: saline with Tween-80 103 % of control and 106 % of control | dose: 0.13 mg/kg/injection, schedule: Q01DX009 (ip), vehicle: saline with Tween-80 105 % of control | dose: 0.25 mg/kg/injection, schedule: Q01DX009 (ip), vehicle: saline with Tween-80 108 % of control and 118 % of control | dose: 0.5 mg/kg/injection, schedule: Q01DX009 (ip), vehicle: saline with Tween-80 122 % of control and 102 % of control and 105 % of control | dose: 1.0 mg/kg/injection, schedule: Q01DX009 (ip), vehicle: saline with Tween-80 109 % of control and 102 % of control | dose: 2.0 mg/kg/injection, schedule: Q01DX009 (ip), vehicle: saline with Tween-80 123 % of control and 106 % of control

O=C(N/N=C/c1ccccc1O)c1cccc([N+](=O)[O-])c1
inactive: [5] 103 % of control | dose: 200.0 mg/kg/injection, schedule: Q01DX009 (ip), vehicle: saline with Tween-80 87 % of control | dose: 400.0 mg/kg/injection, schedule: Q01DX009 (ip), vehicle: saline with Tween-80 96 % of control

COC1=CC(=O)c2c(O)cc(OC)c(O)c2C1=O
inactive: dose: 1.25 mg/kg/injection, schedule: Q01DX009 (ip), vehicle: saline with Tween-80 105 % of control | dose: 2.5 mg/kg/injection, schedule: Q01DX009 (ip), vehicle: saline with Tween-80 121 % of control | [7] 121 % of control | dose: 10.0 mg/kg/injection, schedule: Q01DX009 (ip), vehicle: saline with Tween-80 121 % of control

COc1cc2c(cc1O)C1C(O)C(O)C=C3CCN(C2)C31 (stereo not given)
inactive: dose: 4.0 mg/kg/injection, schedule: Q01DX009 (ip), vehicle: saline + alcohol 114 % of control | dose: 8.0 mg/kg/injection, schedule: Q01DX009 (ip), vehicle: saline + alcohol 100 % of control | dose: 16.0 mg/kg/injection, schedule: Q01DX009 (ip), vehicle: saline + alcohol 105 % of control | dose: 32.0 mg/kg/injection, schedule: Q01DX009 (ip), vehicle: saline + alcohol 102 % of control

CC(C)CC(NC(=O)CF)C(=O)O (stereo not given)
inactive: dose: 0.31 mg/kg/injection, schedule: Q01DX009 (ip), vehicle: saline 95 % of control | dose: 0.63 mg/kg/injection, schedule: Q01DX009 (ip), vehicle: saline 93 % of control | dose: 1.25 mg/kg/injection, schedule: Q01DX009 (ip), vehicle: saline 90 % of control | dose: 2.5 mg/kg/injection, schedule: Q01DX009 (ip), vehicle: saline 89 % of control | dose: 5.0 mg/kg/injection, schedule: Q01DX009 (ip), vehicle: saline 96 % of control | dose: 10.0 mg/kg/injection, schedule: Q01DX009 (ip), vehicle: saline 100 % of control

COC1CC(C)C(OC)c2cc(O)cc(c2O)NC(=O)/C(C)=C/C=C\C(C)C(OC(N)=O)/C(C)=C\C(C)C1OC (stereo not given)
inactive: dose: 0.31 mg/kg/injection, schedule: Q01DX005 (iv), vehicle: other 94 % of control | dose: 0.31 mg/kg/injection, schedule: Q01DX009 (ip), vehicle: other 109 % of control | dose: 0.31 mg/kg/injection, schedule: Q01DX009 (ip), vehicle: saline with Tween-80 98 % of control | dose: 0.62 mg/kg/injection, schedule: Q01DX005 (iv), vehicle: other 101 % of control | dose: 0.62 mg/kg/injection, schedule: Q01DX009 (ip), vehicle: saline with Tween-80 112 % of control | dose: 1.25 mg/kg/injection, schedule: Q01DX005 (iv), vehicle: other 93 % of control | dose: 1.25 mg/kg/injection, schedule: Q01DX009 (ip), vehicle: other 117 % of control | dose: 2.5 mg/kg/injection, schedule: Q01DX005 (iv), vehicle: other 102 % of control | dose: 2.5 mg/kg/injection, schedule: Q01DX009 (ip), vehicle: other 119 % of control | dose: 5.0 mg/kg/injection, schedule: Q01DX005 (iv), vehicle: other 95 % of control | dose: 10.0 mg/kg/injection, schedule: Q01DX005 (iv), vehicle: other 109 % of control | dose: 10.0 mg/kg/injection, schedule: Q01DX009 (ip), vehicle: other 114 % of control
active: [7] 171 % of control

COc1ccc2[nH]c3ccc4cc[n+](CCN5CCC(C6CCN(CC[n+]7ccc8ccc9[nH]c%10ccc(OC)cc%10c9c8c7)CC6)CC5)cc4c3c2c1
active: dose: 6.0 mg/kg/injection, schedule: Q01DX009 (ip), vehicle: water 155 % of control | dose: 12.0 mg/kg/injection, schedule: Q01DX009 (ip), vehicle: water 158 % of control | dose: 12.5 mg/kg/injection, schedule: Q01DX009 (ip), vehicle: Klucel (hydroxypropylcellulose) (HPC) 155 % of control | [6] 203 % of control | dose: 25.0 mg/kg/injection, schedule: Q01DX009 (ip), vehicle: water 177 % of control | [1] 192 % of control | dose: 50.0 mg/kg/injection, schedule: Q01DX009 (ip), vehicle: water 168 % of control | [2] 167 % of control | dose: 100.0 mg/kg/injection, schedule: Q01DX009 (ip), vehicle: water 197 % of control

CC(=O)NC(Cc1ccccc1)C(=O)NC(Cc1cc(I)c(O)c(I)c1)C(=O)O (stereo not given) (Ac-Phe-[Tyr(3,5-I2)]-OH; configuration not given here)
inactive: dose: 400.0 mg/kg/injection, schedule: Q01DX009 (ip), vehicle: Klucel (hydroxypropylcellulose) (HPC) 89 % of control

CC(=Nc1ccccc1)C1=C(O)C(Cc2ccccc2)NC1=O (stereo not given)
inactive: dose: 3.13 mg/kg/injection, schedule: Q01DX009 (ip), vehicle: saline with Tween-80 113 % of control | dose: 6.25 mg/kg/injection, schedule: Q01DX009 (ip), vehicle: saline with Tween-80 121 % of control | dose: 12.5 mg/kg/injection, schedule: Q01DX009 (ip), vehicle: saline with Tween-80 115 % of control and 103 % of control | [3] 119 % of control and 103 % of control | [4] 113 % of control
